As usually defined, the Ki is a measure of affinity in units of concentration, obtained from inhibition or displacement. Higher therefore signals lower affinity. Broadly, the EC50 is the concentration that produces a half-maximal response. A word on the Emax: it is the size of the effect at its maximum, as opposed to the concentration needed.

The structures appear in SMILES notation.

This is an account of results in US9975854B2, “Benzomorphan analogs and use thereof” (Purdue Pharma L.P., priority 2014, dated 2018).

Assay [1] concerns the target T1, κ-opioid receptor (Homo sapiens (Human), UniProt P41145). Kind of assay: κ-opioid receptor radioligand dose-displacement binding assay ([3H]-U69,593). The following applies: binding affinity, HEK-293 or CHO cells. The protocol:
Membranes from recombinant HEK-293 cells, CHO or U-2 OS cells expressing the recombinant human κ opioid receptor (κ) were prepared by lysing cells in ice cold hypotonic buffer (2.5 mM MgCl2, 50 mM HEPES, pH 7.4) (10 mL/10 cm dish) followed by homogenization with a tissue grinder/Teflon pestle. Membranes from a cell line naturally expressing kappa opioid receptors can also be used. Membranes were collected by centrifugation at 30,000×g for 15 min at 4° C. and pellets were resuspended in hypotonic buffer to a final concentration of 1-3 mg/mL. Protein concentrations were determined using the BioRad protein assay reagent with bovine serum albumen as standard. Aliquots of κ receptor membranes were stored at −80° C.
Radioligand dose displacement assays used 0.4 nM [^3H]-U69,593 (GE Healthcare, Piscataway, N.J.; 40 Ci/mmole) with 15 μg membrane protein (recombinant K opioid receptor expressed in HEK 293 cells; in-house prep) in a final volume of 200 μl binding buffer (5% DMSO, 50 mM Trizma base, pH 7.4). Non-specific binding was determined in the presence of 10 μM unlabeled naloxone or U69,593. All reactions were performed in 96-well polypropylene plates for 1 hr at a temperature of about 25° C. Binding reactions were terminated by rapid filtration onto 96-well Unifilter GF/C filter plates (Perkin Elmer, Shelton, Conn.) presoaked in 0.5% polyethylenimine (Sigma). Harvesting was performed using a 96-well tissue harvester (Perkin Elmer, Shelton, Conn.) followed by five filtration washes with 200 μl ice-cold binding buffer. Filter plates were subsequently dried at 50° C. for 1-2 hours. Fifty μl/well scintillation cocktail (Perkin Elmer, Shelton, Conn.) was added and plates were counted in a Packard Top-Count for 1 min/well.
In TABLE 3, binding affinity of certain Compounds of the Invention to the ORL-1, μ-, and κ-opioid receptors was determined as described above in HEK-293 or CHO cells.

Assay [2] concerns the target T2, μ-opioid receptor (Homo sapiens (Human), UniProt P35372). As to the kind of experiment: μ-opioid receptor [35S]GTPγS functional assay, HEK-293 or CHO cells. In kind it is biochemical. The conditions noted are these: HEK-293 or CHO cells; for EC50: read-out: GTPγS μ EC50; for Emax: relative to DAMGO. A digest of the protocol: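 Membranes from recombinant human μ-opioid receptor cells (HEK-293, CHO or U-2 OS) at 0.026 mg/mL with saponin, […] and 0.20 nM [35S]GTPγS in HEPES buffer pH 7.4, incubated 30 min at about 25 °C; bound radioactivity by filtration. EC50 from sigmoidal fit; Emax relative to DAMGO.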
(Binding of GTPγS marks nucleotide exchange on a G protein.)

Assay [3] concerns the target T1, κ-opioid receptor. As to the kind of experiment: κ-opioid receptor [35S]GTPγS functional assay, HEK-293 or CHO cells. It counts as biochemical. As to the method:
(§1) Functional [^35S]GTPγS binding assays were conducted as follows. K opioid receptor membrane solution was prepared by sequentially adding final concentrations of 0.026 μg/μl κ membrane protein (in-house), 10 μg/mL saponin, 3 μM GDP and 0.20 nM [^35S]GTPγS to binding buffer (100 mM NaCl, 10 mM MgCl2, 20 mM HEPES, pH 7.4) on ice. The prepared membrane solution (190 μl/well) was transferred to 96-shallow well polypropylene plates containing 10 μl of 20× concentrated stock solutions of agonist prepared in DMSO. Plates were incubated for 30 min at a temperature of about 25° C. with shaking. Reactions were terminated by rapid filtration onto 96-well Unifilter GF/B filter plates (Perkin Elmer, Shelton, Conn.) using a 96-well tissue harvester (Packard) and followed by three filtration washes with 200 μl ice-cold binding buffer (10 mM NaH2PO4, 10 mM Na2HPO4, pH 7.4). Filter plates were subsequently dried at 50° C. for 2-3 hours. Fifty μl/well scintillation cocktail (Perkin Elmer, Shelton, Conn.) was added and plates were counted in a Packard Top-Count for 1 min/well.
κ GTP EC50 is the concentration of a compound providing 50% of the maximal response for the compound at a κ receptor. […]
In TABLE 4, activity response of certain Compounds of the Invention to the μ- and κ-opioid receptors was determined as described above for functional assays using HEK-293 or CHO cells.

The target in assay [4] is T2, μ-opioid receptor. As to the kind of experiment: μ-opioid receptor [35S]GTPγS functional assay, U-2 OS cells. It counts as biochemical. The protocol: [^35S]GTPγS functional assays were conducted using freshly thawed μ-receptor membranes prepared in-house from a cell line expressing recombinant opioid receptor in a HEK-293, CHO or U-2 OS cell background, or purchased from a commercial source (Perkin Elmer, Shelton, Conn.; or DiscovRx, Fremont, Calif.). Assay reactions were prepared by sequentially adding the following reagents to binding buffer (100 mM NaCl, 10 mM MgCl2, 20 mM HEPES, pH 7.4) on ice (final concentrations indicated): membrane protein (0.026 mg/mL), saponin ([…]), GDP ([…]) and [^35S]GTPγS (0.20 nM; Perkin Elmer, Shelton, Conn.). The prepared membrane solution (190 μl/well) was transferred to 96-shallow well polypropylene plates containing 10 μl of 20× concentrated stock solutions of the agonist [D-Ala^2, N-methyl-Phe^4 Gly-ol^5]-enkephalin (DAMGO) prepared in dimethyl sulfoxide (DMSO). Plates were incubated for 30 min at about 25° C. with shaking. Reactions were terminated by rapid filtration onto 96-well Unifilter GF/B filter plates (Perkin Elmer, Shelton, Conn.) using a 96-well tissue harvester (Perkin Elmer, Shelton, Conn.) followed by three filtration washes with 200 μl of ice-cold wash buffer (10 mM NaH2PO4, 10 mM Na2HPO4, pH 7.4). Filter plates were subsequently dried at 50° C. for 2-3 hr. BetaScint scintillation cocktail (Perkin Elmer, Shelton, Conn.) was added (50 μl/well) and plates were counted using a Packard Top-Count for 1 min/well. Data were analyzed using the sigmoidal dose-response curve fitting functions in GraphPad PRISM v. 3.0, or an in-house function for non-linear, sigmoidal dose-response curve-fitting.
μ GTP EC50 is the concentration of a compound providing 50% of the maximal response for the compound at a μ-opioid receptor.
μ GTP Emax (%) is the maximal effect elicited by a compound relative to the effect elicited by DAMGO, a standard p agonist. Generally, the μ GTP Emax (%) value measures the efficacy of a compound to treat or prevent pain or other Conditions.
(§2) In TABLE 5, activity response of certain Compounds of the Invention to the μ- and κ-opioid receptors was determined as described above for functional assays using U-2 OS cells.

For assay [5], the target named is T1, κ-opioid receptor. Kind of assay: κ-opioid receptor [35S]GTPγS functional assay, U-2 OS cells. It counts as biochemical. The protocol:
as §1
κ GTP EC50 is the concentration of a compound providing 50% of the maximal response for the compound at a κ receptor.
κ GTP Emax (%) is the maximal effect elicited by a compound relative to the effect elicited by U69,593.
as §2

In assay [1], `CN1CC[C@@]2(C)c3cc(O)ccc3C[C@@H]1[C@@H]2NCCc1ccc(S(C)(=O)=O)cc1` [Compound 10, (2R,6S,11R)-3,6-dimethyl-11-((4-(methylsulfonyl)phenethyl)amino)-1,2,3,4,5,6-hexahydro-2,6-methanobenzo[d]azocin-8-ol] returned a Ki of 0.301 ± 0.00979 µM. For the same compound, the EC50 in assay [2] is 225 ± 60.8 nM; in assay [3] (bound given in uM) it was over 20 µM. Further, the figures for the Emax in assay [2] and in assay [3] (relative to U69,593) were 38.5 ± 2.33% and 1%, respectively.
In assay [1], `CN1CC[C@@]2(C)c3cc(O)ccc3C[C@@H]1[C@@H]2N(C)CC1CCN(CC(C)(C)O)CC1` [Compound 97, (2R,6S,11R)-11-(((1-(2-hydroxy-2-methylpropyl)piperidin-4-yl)methyl)(methyl)amino)-3,6-dimethyl-1,2,3,4,5,6-hexahydro-2,6-methanobenzo[d]azocin-8-ol] showed a Ki of 0.00212 ± 0.00055 µM. Moreover, in assay [2], the EC50 is 22.6 ± 2.34 nM and the Emax came out at 47 ± 1.53%.
Consider `CN1CC[C@@]2(C)c3cc(O)ccc3C[C@@H]1[C@H]2NCCC1(O)CCCCC1` [Compound 12, (2R,6S,11S)-11-((2-(1-hydroxycyclohexyl)ethyl)amino)-3,6-dimethyl-1,2,3,4,5,6-hexahydro-2,6-methano-benzo[d]azocin-8-ol], for which the EC50 was 223 ± 29.8 nM in assay [2], 33.6 ± 1.43 nM in assay [4] and 137 ± 20.1 nM in assay [5]. In addition, the figures for the Emax in assay [2], in assay [4] (relative to DAMGO) and in assay [5] (relative to U69,593) were 47.7 ± 4.84%, 100 ± 1.67% and 54 ± 5.92%, respectively.
In assay [1] (bound given in uM), `CC(C)S(=O)(=O)N1CCC(CN(C)[C@H]2[C@H]3Cc4ccc(O)cc4[C@]2(C)CCN3C)CC1` [Compound 55, (2R,6S,11R)-11-(((1-(isopropylsulfonyl)piperidin-4-yl)methyl)(methyl)amino)-3,6-dimethyl-1,2,3,4,5,6-hexahydro-2,6-methanobenzo[d]azocin-8-ol] gave an inhibition constant Ki of over 20 µM. Besides, in assay [2], the EC50 worked out at 3.28 ± 0.39 nM and the Emax turned out to be 52 ± 4.85%.
